Data on 13 compounds can be found in ChEMBL document CHEMBL1201862, “PubChem BioAssay data set” (2004).

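Five concentrations, 48 hours, 96-well plates. The concentration for 50% growth inhibition is given as GI50.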 Activity calls are given as the source filed them. Cut-off read from the data, not from the text of the source: active = GI50 up to about 1.1 µM and inactive = higher.

Among the test systems are ACHN; HT-29; OVCAR-4; HOP-62; SW-620; Malme-3M; RPMI-8226; UACC-62; SR; HCC 2998; K562; A498; SK-MEL-28; RXF 393; SK-MEL-5; OVCAR-5; NCI-H226.
What all share (assay): NCI anticancer screen, dose series, 48 h

Consider `Oc1cc(-c2ccc[nH]2)nc2cc3c(cc12)OCO3`, for which the GI50 with ACHN is 88.1 µM (inactive); with HT-29 it was 29.8 µM (inactive); with OVCAR-4 it was 21 µM (inactive); with HOP-62, 17.6 µM (inactive); in the test on SW-620, 21.6 µM (inactive); in the test on Malme-3M, 17.1 µM (inactive). Moreover, the GI50 in the test with RPMI-8226 was 43 µM (inactive); with UACC-62, 27 µM (inactive); in the test with SR it was 37.2 µM (inactive); with HCC 2998, 28.8 µM (inactive); in the test on K562 it was 17.1 µM (inactive); with A498, 18.6 µM (inactive). The GI50 in the test with SK-MEL-28 is 65.2 µM (inactive).
Take `O=c1[nH]cc(OCC(F)(F)F)c(=O)[nH]1`: the GI50 with ACHN, with HT-29, with OVCAR-4, with HOP-62, with SW-620 and in the test with RXF 393 was > 100 µM (inactive) each time. Besides, the GI50 in the test on Malme-3M, with RPMI-8226, with SK-MEL-5, in the test on UACC-62, with OVCAR-5 and in the test with SR was > 100 µM (inactive) in each case. Moreover, the GI50 in the test with HCC 2998, in the test with K562, in the test on A498 and in the test with SK-MEL-28 was > 100 µM (inactive) each time.
Regarding `O=C(NC12CC3CC(CC(C3)C1)C2)C(=O)c1c[nH]c2ccc([N+](=O)[O-])cc12`, the GI50 in the test on ACHN is 90.4 µM (inactive); in the test with HT-29, > 44.4 µM (inactive); in the test on NCI-H226 it was 23.8 µM (inactive); in the test with OVCAR-4 it was 7.59 µM (inactive); in the test with HOP-62, 17.1 µM (inactive); with SW-620 it was 31.7 µM (inactive). Besides, the GI50 in the test on RXF 393 is 21.1 µM (inactive); with Malme-3M it was 24.7 µM (inactive); with RPMI-8226, > 83 µM (inactive); with SK-MEL-5, 30.3 µM (inactive); in the test with UACC-62 it was 19.1 µM (inactive); with OVCAR-5, > 87.5 µM (inactive). In addition, the GI50 is 14 µM (inactive) in the test on SR; > 100 µM (inactive) in the test on HCC 2998; 49 µM (inactive) with K562; 37.8 µM (inactive) in the test on A498; 85.1 µM (inactive) in the test on SK-MEL-28.
Consider `COc1cc(-c2cccs2)sc1-c1cccs1`, for which the GI50 with ACHN was 53.5 µM (inactive); with HT-29 it was 20.7 µM (inactive); in the test with NCI-H226, 43.5 µM (inactive); with OVCAR-4 it was 50.2 µM (inactive); in the test with SW-620 it was 71.1 µM (inactive); with RXF 393, 21.8 µM (inactive). In addition, the GI50 was 39 µM (inactive) with Malme-3M; 52.4 µM (inactive) with RPMI-8226; 29.7 µM (inactive) in the test on SK-MEL-5; 40.9 µM (inactive) in the test with UACC-62; 22.3 µM (inactive) in the test on OVCAR-5; 17.7 µM (inactive) in the test on SR. Also, the GI50 in the test on HCC 2998 was 26.7 µM (inactive); in the test with K562, 13.6 µM (inactive); in the test on SK-MEL-28, 34 µM (inactive).
As to `O=C(Nc1nnn[nH]1)c1nc(O)cc(-c2ccccc2)n1`, the GI50 in the test with ACHN, in the test on HT-29, in the test with NCI-H226, in the test with OVCAR-4, with HOP-62 and with SW-620 was > 100 µM (inactive) throughout. Also, the GI50 with Malme-3M, with RPMI-8226, in the test on SK-MEL-5, with UACC-62, in the test on OVCAR-5 and in the test with SR was > 100 µM (inactive) each time. In addition, the GI50 with HCC 2998, in the test with K562, in the test with A498 and with SK-MEL-28 was > 100 µM (inactive) in each case.
As for `CCOC(=O)C1=C(C)N(NC(N)=O)C2(N)N(NC(N)=O)C(C)=C(C(=O)OCC)C12C(=O)OCC` (stereo not drawn), the GI50 in the test on ACHN, in the test on HT-29, in the test with NCI-H226, in the test with OVCAR-4, in the test with HOP-62 and in the test on SW-620 was > 100 µM (inactive) each time. Further, the GI50 in the test with RXF 393, in the test on Malme-3M, with RPMI-8226, with SK-MEL-5, in the test on UACC-62 and in the test on OVCAR-5 was > 100 µM (inactive) each time. Moreover, the GI50 in the test with SR, in the test with HCC 2998, in the test on K562, with A498 and in the test with SK-MEL-28 was > 100 µM (inactive) in each case.
With `CC(=O)NNc1nc(C)c(C(=O)NNC(=O)C(=O)Nc2ccc(C)cc2[N+](=O)[O-])s1`, the GI50 in the test with ACHN, in the test on HT-29, in the test on NCI-H226, with OVCAR-4, with HOP-62 and with SW-620 was > 100 µM (inactive) throughout. Also, the GI50 in the test on RXF 393, in the test on Malme-3M, in the test on RPMI-8226, in the test with SK-MEL-5, in the test with UACC-62 and in the test with OVCAR-5 was > 100 µM (inactive) in each case. Moreover, the GI50 was 65.2 µM (inactive) in the test with SR; > 100 µM (inactive) with HCC 2998; > 100 µM (inactive) with K562; > 100 µM (inactive) with A498; > 100 µM (inactive) in the test with SK-MEL-28.
For `Nc1ncc(CN2CCCC2)c(-c2ccccc2O)n1`, the GI50 with ACHN, in the test with HT-29, in the test with NCI-H226, in the test on OVCAR-4, with HOP-62 and in the test with SW-620 was > 750 µM (inactive) in each case. The GI50 in the test on RXF 393, in the test with Malme-3M, in the test with RPMI-8226, in the test with SK-MEL-5, in the test with UACC-62 and in the test on OVCAR-5 was > 750 µM (inactive) each time. Besides, the GI50 was > 750 µM (inactive) with SR; > 750 µM (inactive) in the test on HCC 2998; 4.51 µM (inactive) in the test on K562; > 750 µM (inactive) with A498; > 750 µM (inactive) in the test on SK-MEL-28.
As to `C=C1CC2CC(O)CC(C1)C2` (stereo not drawn), the GI50 in the test on ACHN, with HT-29, with NCI-H226, with OVCAR-4, in the test with HOP-62 and in the test with SW-620 was > 100 µM (inactive) each time. In addition, the GI50 in the test on RXF 393 was > 100 µM (inactive); with Malme-3M it was > 100 µM (inactive); in the test with RPMI-8226, 32.4 µM (inactive); with SK-MEL-5, > 100 µM (inactive); in the test with UACC-62 it was > 100 µM (inactive); in the test with OVCAR-5, > 100 µM (inactive). Moreover, the GI50 in the test with SR is 93.5 µM (inactive); with A498, > 100 µM (inactive); with SK-MEL-28, > 100 µM (inactive).
In the case of `CC(C)C12C=CC(C)(CC1)n1c(=O)c3cc4ccccc4cc3c(=O)n12` (stereo not drawn), the GI50 in the test on ACHN was 36.4 µM (inactive); with HT-29 it was 45.1 µM (inactive); with NCI-H226 it was 40.6 µM (inactive); with OVCAR-4, 43.9 µM (inactive); in the test on HOP-62 it was > 100 µM (inactive); with SW-620, 60.1 µM (inactive). Also, the GI50 in the test on RXF 393 was > 100 µM (inactive); in the test on Malme-3M, 42.9 µM (inactive); in the test on RPMI-8226 it was 36.3 µM (inactive); with SK-MEL-5, 32 µM (inactive); with OVCAR-5, 40.7 µM (inactive); with SR, 33.5 µM (inactive). The GI50 is 33.7 µM (inactive) in the test with HCC 2998, 34.4 µM (inactive) in the test with K562, 22.5 µM (inactive) in the test on A498 and > 100 µM (inactive) in the test on SK-MEL-28.
For the compound `Cc1cccc2c1C(=O)OC2(C)c1cccc2ccccc12` (stereo not drawn), the GI50 with ACHN was 30.6 µM (inactive); with HT-29 it was 30.5 µM (inactive); in the test with NCI-H226 it was 26.5 µM (inactive); with OVCAR-4 it was 22.4 µM (inactive); with SW-620 it was 30.3 µM (inactive); in the test with RXF 393, 22.6 µM (inactive). Further, the GI50 in the test with Malme-3M is 25.5 µM (inactive); in the test with RPMI-8226 it was 25.4 µM (inactive); with SK-MEL-5, 16.4 µM (inactive); in the test on OVCAR-5 it was > 100 µM (inactive); in the test on SR, 23.2 µM (inactive); with HCC 2998, 20.9 µM (inactive). The GI50 was 16.4 µM (inactive) in the test on K562 and 41.3 µM (inactive) in the test with SK-MEL-28.
`Nc1nc(N)c2ncn(CCCC(c3ccccc3)P(=O)(O)O)c2n1` (stereo not drawn): the GI50 in the test on ACHN, in the test on HT-29, with HOP-62, with SW-620, in the test with Malme-3M and with RPMI-8226 was > 100 µM (inactive) in each case. Also, the GI50 in the test with SK-MEL-5, in the test on UACC-62, in the test with OVCAR-5, in the test on SR, in the test with HCC 2998 and in the test with K562 was > 100 µM (inactive) each time. Further, the GI50 in the test with A498 and with SK-MEL-28 was > 100 µM (inactive) in each case.
`C[C@@H]1[C@H](c2ccccc2)O[B-]2(c3ccc(Br)cc3)OC(=O)C[N+]12C` (stereo partly drawn): the GI50 in the test on ACHN was 86.9 µM (inactive); with HT-29, > 100 µM (inactive); in the test with OVCAR-4 it was > 100 µM (inactive); in the test on HOP-62, > 100 µM (inactive); in the test on SW-620 it was > 100 µM (inactive); in the test on RXF 393, 26.5 µM (inactive). Also, the GI50 in the test on Malme-3M, with RPMI-8226, in the test on SK-MEL-5, in the test on UACC-62, with OVCAR-5 and in the test on SR was > 100 µM (inactive) each time. Moreover, the GI50 with HCC 2998 was > 100 µM (inactive); in the test with K562, 98.9 µM (inactive); with A498, > 100 µM (inactive); in the test on SK-MEL-28, 0.1 µM (active).
